# Results: doi:10.1101/2025.11.13.688260v1 (biorxiv, 2025)
# Target: human CBL-B (Homo sapiens, UniProt Q13191)
# Test: TR-FRET ubiquitin ligase assay
# Assay type: biochemical
# Sequence of human CBL-B (Q13191 whole entry): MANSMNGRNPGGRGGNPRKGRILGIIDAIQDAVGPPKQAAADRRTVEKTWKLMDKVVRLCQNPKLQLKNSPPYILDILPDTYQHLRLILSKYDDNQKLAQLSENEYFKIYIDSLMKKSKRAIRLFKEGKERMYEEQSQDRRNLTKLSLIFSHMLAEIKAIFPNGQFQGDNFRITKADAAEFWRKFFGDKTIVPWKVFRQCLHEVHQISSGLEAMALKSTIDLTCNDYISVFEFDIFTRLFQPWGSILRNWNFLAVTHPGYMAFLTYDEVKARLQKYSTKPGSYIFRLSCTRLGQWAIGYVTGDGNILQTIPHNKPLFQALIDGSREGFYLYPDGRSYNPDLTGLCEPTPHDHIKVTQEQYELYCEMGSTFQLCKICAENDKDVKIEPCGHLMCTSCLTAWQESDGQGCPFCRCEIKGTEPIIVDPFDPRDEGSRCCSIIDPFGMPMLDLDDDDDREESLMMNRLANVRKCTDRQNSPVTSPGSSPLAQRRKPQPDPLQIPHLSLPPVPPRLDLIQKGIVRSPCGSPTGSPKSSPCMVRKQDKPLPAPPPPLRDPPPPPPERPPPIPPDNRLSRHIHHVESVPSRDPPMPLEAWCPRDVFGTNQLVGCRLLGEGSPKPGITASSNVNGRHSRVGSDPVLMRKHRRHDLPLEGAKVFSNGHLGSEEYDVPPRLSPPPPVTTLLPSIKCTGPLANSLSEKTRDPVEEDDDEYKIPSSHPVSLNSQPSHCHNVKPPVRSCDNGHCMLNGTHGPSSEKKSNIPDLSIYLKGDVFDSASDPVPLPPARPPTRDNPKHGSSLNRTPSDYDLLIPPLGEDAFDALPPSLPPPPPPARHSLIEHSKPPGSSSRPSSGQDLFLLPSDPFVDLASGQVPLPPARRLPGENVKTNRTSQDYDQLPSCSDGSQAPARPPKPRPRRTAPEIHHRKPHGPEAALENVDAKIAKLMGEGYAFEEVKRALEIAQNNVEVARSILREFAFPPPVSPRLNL
row,IC50 [nM],Structure (SMILES)
1,1190,"Cn1cnnc1[C@]1(c2cccc(-c3cc4ccccc4[nH]c3=O)c2)C[C@H](C)C1 [compound 4, Cmpd. 4]"
2,16.8,"C[C@H]1CCCN(Cc2cccc3cc(-c4cccc([C@]5(c6nncn6C)C[C@@H](C)C5)c4)c(=O)[nH]c23)C1 [compound 6, Cmpd. 6]"
3,19.7,"CC(NC1CCCC1)c1ccc(F)c2cc(-c3cccc([C@]4(c5nncn5C)C[C@@H](C)C4)c3)c(=O)[nH]c12 (stereo partly drawn) [compound 12, Cmpd. 12]"
